Experiments:
[1] = refractive index (Na D-line) (dimensionless); xn = mol fraction of the nth substance listed; conditions: 81.5 kPa, Liquid, Standard Abbe refractometry
[2] = xn = mol fraction of the nth substance listed; conditions: 81.5 kPa, Liquid, Vibrating tube method

O=[N+]([O-])c1ccccc1 [nitrobenzene] + ClCCCl
Conditions	mass density, 293.15 K [kg/m3]	mass density, 303.15 K [kg/m3]	mass density, 313.15 K [kg/m3]	mass density, 323.15 K [kg/m3]	mass density, 333.15 K [kg/m3]	refractive index, 293.15 K	refractive index, 303.15 K	refractive index, 313.15 K	refractive index, 323.15 K	refractive index, 333.15 K
[1], x2 = 0	–	–	–	–	–	1.55241	1.54763	1.54288	1.53795	1.53289
[1], x2 = 0.1008	–	–	–	–	–	1.54317	1.53879	1.53437	1.52975	1.52496
[1], x2 = 0.1993	–	–	–	–	–	1.5343	1.53004	1.52579	1.5214	1.5169
[1], x2 = 0.3	–	–	–	–	–	1.5252	1.52093	1.51672	1.51243	1.5081
[1], x2 = 0.3997	–	–	–	–	–	1.51592	1.51157	1.5073	1.50299	1.49867
[1], x2 = 0.4991	–	–	–	–	–	1.5061	1.50165	1.49727	1.49286	1.48847
[1], x2 = 0.6004	–	–	–	–	–	1.49525	1.49071	1.48623	1.48171	1.4772
[1], x2 = 0.7006	–	–	–	–	–	1.48353	1.47893	1.47436	1.46977	1.46518
[1], x2 = 0.801	–	–	–	–	–	1.47088	1.46619	1.46154	1.45687	1.45224
[1], x2 = 0.8997	–	–	–	–	–	1.45787	1.453	1.44817	1.44337	1.43861
[2], x2 = 0	1203.05	1193.15	1183.21	1173.27	1163.32	–	–	–	–	–
[2], x2 = 0.1008	1206.99	1196.83	1186.61	1176.36	1166.07	–	–	–	–	–
[2], x2 = 0.1993	1211.04	1200.58	1190.03	1179.45	1168.82	–	–	–	–	–
[2], x2 = 0.3	1215.35	1204.56	1193.66	1182.68	1171.66	–	–	–	–	–
[2], x2 = 0.3997	1219.84	1208.67	1197.36	1185.98	1174.52	–	–	–	–	–
[2], x2 = 0.4991	1224.55	1212.96	1201.23	1189.39	1177.48	–	–	–	–	–
[2], x2 = 0.6004	1229.62	1217.53	1205.32	1193	1180.62	–	–	–	–	–
[2], x2 = 0.7006	1234.94	1222.31	1209.57	1196.72	1183.82	–	–	–	–	–
[2], x2 = 0.801	1240.51	1227.39	1214.06	1200.58	1187.03	–	–	–	–	–
[2], x2 = 0.8997	1246.65	1232.66	1218.68	1204.5	1190.22	–	–	–	–	–

— the NIST ThermoML archive (doi:10.1016/j.jct.2015.12.027)
